Where two headings read alike, the source gives them in different places.
Key:
Type in all cases: in vivo
[1] = system: SD rats; assay: Loss of righting reflex in SD rats, intraperitoneal injection; conditions: for rate of loss of righting reflex: within 4 h
Source text: To determine the threshold for the loss of righting reflex in SD rats after injection of compound 41 in order to evaluate the sedative effect and therapeutic safety window of the compound.
Male SD rats weighing 180-200 g, as test animals, were acclimatized for 7 days after arriving at the animal facility and were randomly divided into groups based on weight one day before testing. The rats were fasted for half a day before testing but had access to water. Doses of compound 41 were designed in a 0.8-fold gradient, and the doses were set at 23.5 mg/kg, 18.8 mg/kg, 15 mg/kg, 12 mg/kg, and 9.6 mg/kg. Observations were made on the loss of righting reflex within 4 h of intraperitoneally injecting compound 41 into the rats.

[2] = system: SD rats; assay: Anticonvulsant effect, pentylenetetrazol (PTZ)-induced epileptic convulsion SD rat model
Method: To establish an epileptic convulsion SD rat animal model by intraperitoneally injecting 50 mg/kg of pentylenetetrazol (PTZ) into SD rats, and evaluate the anticonvulsant effect of compound 41.
Male SD rats weighing 300±10 g, as test animals, were acclimatized for 7 days after arriving at the animal facility and were randomly divided into groups based on weight one day before administration. The rats were fasted for half a day before testing but had access to water. During the test, compound 41 was orally administered to the animals at 3.5 mg/kg in advance. Two hours after the oral administration, a PTZ solution was intraperitoneally injected at 50 mg/kg. Observations were made on the rats' epileptic convulsion behavior within 1 h of performing PTZ induction. The latency period of clonic convulsion and the latency period of tonic-clonic behavior were measured.
Behavioral raw data are finally expressed as mean±standard error (Mean S.E.M.) and statistically analyzed using One-way ANOVA Dunnett post hoc. P<0.05 indicates the presence of a significant difference, P<0.01 indicates the presence of a very significant difference, and P<0.001 indicates the presence of an extremely significant difference.

[3] = Pharmacokinetic study in CD-1 mice (plasma and brain)
Method: Male CD-1 mice weighing about 25 g were randomly divided into groups of 3.
The intravenous (IV) dose was 1 mg/kg, and the intragastric (IG) dose was 5 mg/kg. Animals were fasted for 12 h before administration, with free access to water, and were fed together 3 h post-administration. Blood samples of about 0.15 mL were collected at 5 min (intravenous), 15 min, 30 min, 1 h, 2 h, 4 h, 8 h, 12 h, and 24 h post-administration into heparinized EP tubes and centrifuged at 13,500 rpm for 10 min to separate the plasma. Mouse brain tissue samples were collected after cardiac perfusion at 30 min, 2 h, and 8 h. After pretreatment, the samples were analyzed by LC-MS/MS to determine the concentration of the test compound in the plasma and brain, and pharmacokinetic parameters were calculated.

[4] = Pharmacokinetic study in SD rats (plasma and brain)
Method: Male SD rats weighing about 250 g were randomly divided into groups of 3.
The intravenous dose was 6.1 mol/kg, and the intragastric dose was 24.4 μmol/kg. Animals were fasted for 12 h before administration, with free access to water, and were fed together 3 h post-administration. Blood samples of about 0.3 mL were collected at 5 min (intravenous), 15 min, 30 min, 1 h, 2 h, 3 h, 4 h, 6 h, 8 h, 12 h, and 24 h post-administration into heparinized EP tubes and centrifuged at 13,500 rpm for 10 min to separate the plasma. Rat brain tissue samples were collected after cardiac perfusion at 30 min, 2 h, and 6 h. After pretreatment, the samples were analyzed by LC-MS/MS to determine the concentration of the test compound in the plasma and brain, and pharmacokinetic parameters were calculated.

[5] = 3.5 mg/kg oral 2 h before PTZ 50 mg/kg i.p., observed 1 h, P<0.001 vs solvent control
[6] = male, mouse, IV 1 mg/kg, plasma
[7] = male, mouse, plasma, IV 1 mg/kg
[8] = male, mouse, plasma, po, IG 5 mg/kg
[9] = male, mouse, po, IG 5 mg/kg, plasma
[10] = male, rat, 6.1 umol/kg, IV 6.1 μmol/kg, plasma
[11] = male, rat, plasma, 6.1 umol/kg, IV 6.1 μmol/kg
[12] = male, rat, plasma, po, 24.4 umol/kg, IG 24.4 μmol/kg
[13] = male, rat, po, 24.4 umol/kg, IG 24.4 μmol/kg, plasma

Compound: C[C@@]1(O)CC[C@H]2[C@H](CC[C@@H]3[C@@H]2CC[C@]2(C)[C@@H](C(=O)Cn4cnn(-c5cc(F)nc(F)c5)c4=O)CC[C@@H]32)C1 [Compound 41]
- rate of loss of righting reflex ([1]; 9.6 mg/kg intraperitoneal): 0
- rate of loss of righting reflex ([1]; 12 mg/kg intraperitoneal): 0
- rate of loss of righting reflex ([1]; 15 mg/kg intraperitoneal): 30%
- rate of loss of righting reflex ([1]; 18.8 mg/kg intraperitoneal): 50%
- rate of loss of righting reflex ([1]; 23.5 mg/kg intraperitoneal): 80%
- therapeutic safety window (in words) ([1]; intraperitoneal): relatively wide
- threshold dose for the loss of righting reflex ([1]; intraperitoneally injected): 12 mg/kg
- latency period of clonic convulsion behavior [2, 5]: 2764.6 ± 1330.9 s
- latency period of tonic-clonic behavior [2, 5]: 3600 ± 0 s
- effective dose for the antiepileptic convulsion effect ([2]; oral, PTZ model): 3.5 mg/kg
- brain penetration capability (in words) ([3]; IG 5 mg/kg): strong
- AUC(0-inf) [3, 6]: 4320 ng·h/mL
- AUC(0-t) [3, 6]: 3660 ng·h/mL
- C0 [3, 6]: 490 ng/mL
- concentration at 30 min ([3]; male, mouse, brain, oral, IG 5 mg/kg, 30 min, read-out: Brain concentration): 847 ± 36 ng/g
- concentration at 2 h ([3]; male, mouse, brain, oral, IG 5 mg/kg, 2 h, read-out: Brain concentration): 1920 ± 978 ng/g
- concentration at 8 h ([3]; male, mouse, brain, oral, IG 5 mg/kg, 8 h, read-out: Brain concentration): 1590 ± 233 ng/g
- Kp at 30 min ([3]; male, mouse, brain/plasma, oral, IG 5 mg/kg, 30 min, read-out: Brain-to-blood ratio): 0.9
- Kp at 2 h ([3]; male, mouse, brain/plasma, oral, IG 5 mg/kg, 2 h, read-out: Brain-to-blood ratio): 1.5
- Kp at 8 h ([3]; male, mouse, brain/plasma, oral, IG 5 mg/kg, 8 h, read-out: Brain-to-blood ratio): 1.8
- MRT last [3, 7]: 7.9 h
- half-life [3, 7]: 9 h
- bioavailability ([3]; male, mouse, plasma, oral, IG 5 mg/kg vs IV 1 mg/kg, read-out: F (absolute bioavailability)): 109%
- concentration at 30 min ([3]; male, mouse, plasma, oral, IG 5 mg/kg, 30 min, read-out: Plasma concentration): 936 ± 119 ng/mL
- concentration at 2 h ([3]; male, mouse, plasma, oral, IG 5 mg/kg, 2 h, read-out: Plasma concentration): 1280 ± 345 ng/mL
- concentration at 8 h ([3]; male, mouse, plasma, oral, IG 5 mg/kg, 8 h, read-out: Plasma concentration): 891 ± 72 ng/mL
- MRT last [3, 8]: 9.8 h
- Tmax [3, 8]: 1 h
- half-life [3, 8]: 16.5 h
- AUC(0-inf) [3, 9]: 31300 ng·h/mL
- AUC(0-t) [3, 9]: 20000 ng·h/mL
- Cmax [3, 9]: 1670 ng/mL
- brain penetration capability (in words) ([4]; IG 24.4 μmol/kg): strong
- Brain concentration ([4]; IG 24.4 μmol/kg, 30 min): 2565 ± 452 nmol/kg
- Brain concentration ([4]; IG 24.4 μmol/kg, 2 h): 4533 ± 720 nmol/kg
- Brain concentration ([4]; IG 24.4 μmol/kg, 6 h): 2692 ± 259 nmol/kg
- AUC(0-inf) [4, 10]: 10.1 ± 2.38 µM·h
- AUC(0-t) [4, 10]: 9.71 ± 2.26 µM·h
- C0 [4, 10]: 2.11 ± 0.537 µM
- Kp at 30 min ([4]; male, rat, brain/plasma, oral, IG 24.4 μmol/kg, 30 min, read-out: Brain-to-blood ratio): 0.8
- Kp at 2 h ([4]; male, rat, brain/plasma, oral, IG 24.4 μmol/kg, 2 h, read-out: Brain-to-blood ratio): 1.2
- Kp at 6 h ([4]; male, rat, brain/plasma, oral, IG 24.4 μmol/kg, 6 h, read-out: Brain-to-blood ratio): 1.8
- MRT last [4, 11]: 6.3 ± 0.83 h
- half-life [4, 11]: 5.17 ± 0.55 h
- bioavailability ([4]; male, rat, plasma, oral, IG 24.4 μmol/kg vs IV 6.1 μmol/kg, read-out: F (absolute bioavailability)): 84%
- concentration at 30 min ([4]; male, rat, plasma, oral, IG 24.4 μmol/kg, 30 min): 3.2 ± 1.16 µM
- concentration at 2 h ([4]; male, rat, plasma, oral, IG 24.4 μmol/kg, 2 h): 3.81 ± 0.67 µM
- concentration at 6 h ([4]; male, rat, plasma, oral, IG 24.4 μmol/kg, 6 h): 1.48 ± 0.261 µM
- MRT last [4, 12]: 7.61 ± 0.6 h
- Tmax [4, 12]: 1.67 ± 0.58 h
- half-life [4, 12]: 6.11 ± 1.44 h
- AUC(0-inf) [4, 13]: 35.1 ± 7.03 µM·h
- AUC(0-t) [4, 13]: 32.5 ± 5.2 µM·h
- Cmax [4, 13]: 3.28 ± 0.324 µM
